Target: T1, Protein cereblon [318-426] (UniProt Q96SW2)
T1 construct: 318-426
Test: Measurement of Molecular Interactions Using Surface Plasmon Resonance (SPR)
Procedure: The instrument used was the Biacore T200 (manufactured by Cytiva). […] The sensor chip used was Sensor Chip SA (manufactured by Cytiva). The CRBN truncate was immobilized using the affinity between SA (streptavidin) on the sensor chip and the Avi-tag. The running buffer was a mixture of 10 mM HEPES pH 7.5, 150 mM NaCl, 1 mM TCEP, 0.005% Tween 20, and 2% DMSO. […] Contact time and dissociation time were set at 60 seconds and 120 seconds, respectively.

T1 sequence (Q96SW2 318-426): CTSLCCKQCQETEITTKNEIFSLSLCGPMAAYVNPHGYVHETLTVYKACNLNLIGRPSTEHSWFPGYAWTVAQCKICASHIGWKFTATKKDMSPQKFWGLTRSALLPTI

Kd	SMILES
in the range around 75 µM	CC(C)(C)OC(=O)C1=CC(C2CCCC(=O)NC2=O)CC=C1 (stereo unspecified) [US20250388593, Example 60]
> 100 µM	O=C1CCCC(C2=CC([N+](=O)[O-])CC=C2)C(=O)N1 (stereo unspecified) [US20250388593, Example 62]
> 100 µM	O=C1CCCC(c2cc([N+](=O)[O-])ccc2Cl)C(=O)N1 (stereo unspecified) [US20250388593, Example 63]
> 100 µM	COC(=O)C(CCCCNC(=O)OCc1ccccc1)Oc1ccccc1[N+](=O)[O-] (stereo unspecified) [US20250388593, Example 66-1]
> 100 µM	CC(C)(C)OC(=O)N1CCN(C(=O)CN2CCC3(CCCC(=O)NC3=O)CC2=O)CC1 (stereo unspecified) [US20250388593, Example 98]
> 100 µM	CC(C)(C)OC(=O)CN1CCC2(CCCC(=O)NC2=O)CC1=O (stereo unspecified) [US20250388593, Example 107]
< 50 µM	CC(=O)Nc1ccc2nc(N3CCCC(=O)NC3=O)sc2c1 [US20250388593, Example 119]
< 50 µM	CC(C)(C)OC(=O)CCc1nn(C2CCCC(=O)NC2=O)c2ccccc12 (stereo unspecified) [US20250388593, Example 137]
> 100 µM	Cn1c(=O)n(C2CCCC(=O)NC2=O)c2cccc(CCCCCCCC(=O)OC(C)(C)C)c21 (stereo unspecified) [US20250388593, Example 207]
< 50 µM	Cn1c(=O)n(C2CCCC(=O)NC2=O)c2cccc(CCC(=O)OC(C)(C)C)c21 (stereo unspecified) [US20250388593, Example 213]
> 100 µM	Cn1c(=O)n(C2CCCC(=O)NC2=O)c2ccc(C#CCCCCCC(=O)OC(C)(C)C)cc21 (stereo unspecified) [US20250388593, Example 215]
> 100 µM	Cn1c(=O)n(C2CCCC(=O)NC2=O)c2ccc(CCCCCCCC(=O)OC(C)(C)C)cc21 (stereo unspecified) [US20250388593, Example 216]
< 50 µM	Cn1c(=O)n(C2CCCC(=O)NC2=O)c2ccc(CCCCC(=O)OC(C)(C)C)cc21 (stereo unspecified) [US20250388593, Example 217]
> 100 µM	O=C1CCCC(N2C(=O)OCC3=C2C=CC([N+](=O)[O-])C3)C(=O)N1 (stereo unspecified) [US20250388593, Example 274]
> 100 µM	CC(C)(C)OC(=O)N1CCC(c2ccc(OC3CCCCNC3=O)cc2)CC1 (stereo unspecified) [US20250388593, Example 276]
> 100 µM	CN(C1CCCC(=O)NC1=O)S(=O)(=O)c1ccc(CCCCC(=O)OC(C)(C)C)cc1 (stereo unspecified) [US20250388593, Example 279]
> 100 µM	Cn1nc(N2CC=CC(=O)NC2=O)c2ccc(C3CCN(C(=O)OC(C)(C)C)CC3)cc21 [US20250388593, Example 282]
> 100 µM	CC(C)(C)OC(=O)CCCCCNc1cccc(C2CCCC(=O)NC2=O)c1 (stereo unspecified) [US20250388593, Example 298]
> 100 µM	CC(C)(C)OC(=O)CCCCCNc1ccc(N2CCC3(CCCC(=O)NC3=O)CC2=O)cc1 (stereo unspecified) [US20250388593, Example 301]
> 100 µM	CC(C)(C)OC(=O)CCCCCNc1ccc(N2CCC(N3CCCC(=O)NC3=O)C2=O)cc1 (stereo unspecified) [US20250388593, Example 302]
> 100 µM	CC(C)(C)OC(=O)NCCCCCCCNc1ccc(N2CCC3(CCCC(=O)NC3=O)CC2=O)cc1 (stereo unspecified) [US20250388593, Example 304]

— BindingDB's records for patent US20250388593 (Mitsubishi Tanabe Pharma, 2025)
